Measured values published in patent EP2808342B1, “Medium for in-vitro toxicity testing and in-vitro toxicity test method using the same” (priority 2013, dated 2014).

Assays:
[1] = system: N2a cells; assay: Toxicity test (CCK-8 cell proliferation assay) on cells cultured on plates not coated with REP; format: cell-based; conditions: Cultured Cell of C. Ex. 1 (B)
Protocol: (§1) N2a cells ([…], purchased from the ATCC, USA) were seeded at a density of 5x10^5 cells/well into the culture plates coated with REP prepared in Example 1 (hereinafter referred to as "REP-plate"). The cell culture medium was Eagle's Minimum Essential Medium (EMEM) supplemented with 2 mM glutamine, 1 mM sodium pyruvate, 1.5 g/l sodium bicarbonate, 100 units/ml penicillin and 100 µg/ml streptomycin. The REP-plates where N2a cells were seeded were incubated for 3 days at 37°C in a 5% CO2 atmosphere with humidity of 95% to afford the formation of 3D cell clusters.
Cells were cultured in the same manner as in Example 2, with the exception that the plates were not coated with REP.
(§2) To the cell clusters obtained in Example 2 or the cells obtained in Comparative Example 1 was added a solution of PFOA (perfluorooctanoic acid, Mw 414.1 g/mol, Sigma-Aldrich, 171468-5G, 96%) with a concentration of 5 µM, 20 µM, 50 µM, 100 µM, 200 µM, 300 µM, 400 µM, 500 µM, 600 µM, 700 µM, 800 µM, 900 µM, 1,000 µM or 2,000 µM. After 3, 24 or 48 hrs of incubation, the cells were assayed for proliferation using a cell counting kit-8 (CCK-8, Dojindo, Japan).
(§3) The PFOA solution was made by dissolving PFOA in dimethyl sulfoxide (DMSO, Sigma-Aldrich, USA) at a final concentration of 5 µM, 20 µM, 50 µM, 100 µM, 200 µM, 300 µM, 400 µM, 500 µM, 600 µM, 700 µM, 800 µM, 900 µM, 1,000 µM or 2,000 µM.
(§4) For the cell proliferation assay, absorbance (OD) at 450 nm was measured on an amicroplate reader (Multiskan, Thermo USA). From the measurements, inhibitory concentration (IC50) values were calculated using TOXCALC 5.0 (Tidepool Scientific Software, USA).
(§5) A solution of PFOS (perfluorooctane sulfonates; Mw 538.2, Sigma-Aldrich, 77282-10G, ≥98.0 (T)) with a concentration of 5 µM, 20 µM, 50 µM, 100 µM, 200 µM, 300 µM, 400 µM, 500 µM, 600 µM, 700 µM, 800 µM, 900 µM, 1,000 µM or 2, 000 µM was added to the cell clusters obtained in Example 2 and to the cells obtained in Comparative Example 1. After 3, 24 or 48 hrs of incubation, the cells were assayed for proliferation using a cell counting kit-8 (CCK-8, Dojindo, Japan).
(§6) The PFOS solution was made by dissolving PFOS in dimethyl sulfoxide (DMSO, Sigma-Aldrich, USA) at a final concentration of 5 µM, 20 µM, 50 µM, 100 µM, 200 µM, 300 µM, 400 µM, 500 µM, 600 µM, 700 µM, 800 µM, 900 µM, 1,000 µM or 2,000 µM.

[2] = system: N2a cells; assay: Toxicity test (CCK-8 cell proliferation assay) on 3D cell clusters grown on REP-coated plates; format: cell-based; conditions: Cell Cluster of Ex. 2 (A), REP-plate
Protocol: REP was dissolved at a concentration of 10 µM in phosphate buffered saline (PBS), and the 10 µM REP solution was aliquoted in an amount of 50 µl per well into 96-well polystyrene plates and incubated for 1 hr at 37°C. The supernatant was removed from each well to leave REP to adhere to the plates.
as §1, §2, §3, §4, §5, §6

[3] = Mus musculus, N2a, 3 hrs incubation
[4] = Mus musculus, N2a, 24 hrs incubation
[5] = Mus musculus, N2a, 48 hrs incubation

| Compound | IC50 [1, 3] | IC50 [1, 4] | IC50 [1, 5] | IC50 [2, 3] | IC50 [2, 4] | IC50 [2, 5] | IC50 ([1]; 3 hrs incubation) | IC50 ([1]; 24 hrs incubation) | IC50 ([1]; 48 hrs incubation) | IC50 ([2]; 3 hrs incubation) | IC50 ([2]; 24 hrs incubation) | IC50 ([2]; 48 hrs incubation) |
| --- | --- | --- | --- | --- | --- | --- | --- | --- | --- | --- | --- | --- |
| O=C(O)C(F)(F)C(F)(F)C(F)(F)C(F)(F)C(F)(F)C(F)(F)C(F)(F)F [PFOA, perfluorooctanoic acid] | 511 µM | 389 µM | 310 µM | 632 µM | 495 µM | 423 µM |  |  |  |  |  |  |
| O=S(=O)(O)C(F)(F)C(F)(F)C(F)(F)C(F)(F)C(F)(F)C(F)(F)C(F)(F)C(F)(F)F [PFOS, perfluorooctane sulfonates] |  |  |  |  |  |  | 196 µM | 219 µM | 220 µM | 471 µM | 355 µM | 300 µM |
